Reference: ChEMBL document CHEMBL3352757, “Mono- and di-halogenated histamine, histidine and carnosine derivatives are potent carbonic anhydrase I, II, VII, XII and XIV activators” (Bioorg Med Chem, 2014)

Experiments:
[1] = molecular target: Carbonic anhydrase 14 (Homo sapiens) (UniProt Q9ULX7); test: Activation of transmembrane human carbonic anhydrase-14 incubated for 15 mins prior to testing by stopped-flow CO2 hydrase assay
[2] = molecular target: Carbonic anhydrase 2 (Homo sapiens) (UniProt P00918); test: Activation of […] human carbonic anhydrase-2 incubated for 15 mins prior to testing by stopped-flow CO2 hydrase assay
[3] = molecular target: Carbonic anhydrase 7 (Homo sapiens) (UniProt P43166); test: Activation of […] human carbonic anhydrase-7 incubated for 15 mins prior to testing by stopped-flow CO2 hydrase assay
[4] = molecular target: Carbonic anhydrase 1 (Homo sapiens) (UniProt P00915); test: Activation of […] human carbonic anhydrase-1 incubated for 15 mins prior to testing by stopped-flow CO2 hydrase assay
[5] = molecular target: Carbonic anhydrase 12 (Homo sapiens) (UniProt O43570); test: Activation of transmembrane human carbonic anhydrase-12 incubated for 15 mins prior to testing by stopped-flow CO2 hydrase assay
Carbonic anhydrase 12 (Homo sapiens), sequence (O43570 whole entry): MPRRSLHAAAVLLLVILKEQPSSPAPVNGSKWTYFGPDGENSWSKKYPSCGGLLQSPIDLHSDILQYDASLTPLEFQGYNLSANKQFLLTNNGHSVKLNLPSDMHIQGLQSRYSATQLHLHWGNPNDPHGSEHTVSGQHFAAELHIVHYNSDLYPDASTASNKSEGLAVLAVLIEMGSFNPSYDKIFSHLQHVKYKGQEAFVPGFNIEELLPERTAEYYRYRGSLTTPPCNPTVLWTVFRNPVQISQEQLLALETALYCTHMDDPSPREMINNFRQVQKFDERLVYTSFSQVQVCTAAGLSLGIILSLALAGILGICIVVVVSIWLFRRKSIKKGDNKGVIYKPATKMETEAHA

Carbonic anhydrase 1 (Homo sapiens), sequence (P00915 2-261 limits assumed): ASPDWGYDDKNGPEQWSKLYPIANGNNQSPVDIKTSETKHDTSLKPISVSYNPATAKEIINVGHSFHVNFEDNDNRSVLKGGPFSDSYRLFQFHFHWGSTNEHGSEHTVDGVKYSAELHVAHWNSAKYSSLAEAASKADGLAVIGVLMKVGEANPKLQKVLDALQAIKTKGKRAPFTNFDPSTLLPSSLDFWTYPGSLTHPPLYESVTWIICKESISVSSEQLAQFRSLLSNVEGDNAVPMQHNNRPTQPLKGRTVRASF
Carbonic anhydrase 7 (Homo sapiens), sequence (P43166 whole entry): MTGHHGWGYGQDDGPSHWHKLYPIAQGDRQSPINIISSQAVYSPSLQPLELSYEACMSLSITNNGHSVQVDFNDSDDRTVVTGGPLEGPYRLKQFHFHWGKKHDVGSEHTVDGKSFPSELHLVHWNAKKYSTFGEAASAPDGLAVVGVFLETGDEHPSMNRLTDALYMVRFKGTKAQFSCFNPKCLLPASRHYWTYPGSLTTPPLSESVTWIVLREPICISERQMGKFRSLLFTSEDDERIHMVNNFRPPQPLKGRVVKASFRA
Carbonic anhydrase 14 (Homo sapiens), sequence (Q9ULX7 whole entry): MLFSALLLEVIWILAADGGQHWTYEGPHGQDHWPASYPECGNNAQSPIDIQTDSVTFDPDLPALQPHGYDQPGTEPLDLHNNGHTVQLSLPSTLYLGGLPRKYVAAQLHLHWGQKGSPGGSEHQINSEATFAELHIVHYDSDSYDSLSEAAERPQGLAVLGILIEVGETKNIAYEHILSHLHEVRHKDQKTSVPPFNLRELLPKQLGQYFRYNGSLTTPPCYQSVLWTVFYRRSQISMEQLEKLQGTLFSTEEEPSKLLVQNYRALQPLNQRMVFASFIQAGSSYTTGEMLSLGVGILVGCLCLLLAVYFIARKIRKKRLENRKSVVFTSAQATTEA

SMILES	KA [1] [µM]	KA [2] [µM]	KA [3] [µM]	KA [4] [µM]	KA [5] [µM]
COC(=O)[C@@H](N)Cc1nc[nH]c1Br	5.2	10.4	12.3	13.6	1.01
CC(C)(C)OC(=O)NCCc1nc[nH]c1I	30.9	13.6	21.5	29.3	44.3
COC(=O)[C@H](Cc1nc[nH]c1Cl)NC(=O)CCNC(=O)OC(C)(C)C	7.9	48.5	12.1	34.3	2.5
COC(=O)[C@H](Cc1nc(I)[nH]c1I)NC(=O)OC(C)(C)C	34.9	0.013	10.3	0.0015	64.7
COC(=O)[C@H](Cc1nc(Br)[nH]c1Br)NC(=O)OC(C)(C)C	3.51	0.96	13.1	0.032	1.62
NCCc1nc(Br)[nH]c1Br	13.1	0.008	0.74	0.012	25.2
NCCc1nc[nH]c1Cl	38.7	0.115	15.3	0.021	12.1
COC(=O)[C@H](Cc1nc[nH]c1Br)NC(=O)OC(C)(C)C	0.92	26.5	40.2	7.3	10.7
COC(=O)[C@H](Cc1nc[nH]c1I)NC(=O)CCN	39.2	1.6	1.06	7.6	40.1
COC(=O)[C@H](Cc1nc(Cl)[nH]c1Cl)NC(=O)CCN	10.3	10.9	0.01	22.5	0.072
COC(=O)[C@H](Cc1nc(Br)[nH]c1Br)NC(=O)CCNC(=O)OC(C)(C)C	40.8	34.8	4	21.5	31.6
CC(C)(C)OC(=O)NCCc1nc[nH]c1Br	34.7	44.5	10.4	7.1	52.8
COC(=O)[C@H](Cc1nc(I)[nH]c1I)NC(=O)CCN	20.1	2.9	3.5	21.4	10.5
COC(=O)[C@@H](N)Cc1c[nH]cn1	0.93	10.4	0.88	0.02	0.91
COC(=O)[C@H](Cc1nc(Cl)[nH]c1Cl)NC(=O)CCNC(=O)OC(C)(C)C	33.5	18.6	0.12	10.1	9.7
COC(=O)[C@H](Cc1nc[nH]c1Cl)NC(=O)OC(C)(C)C	24.1	29	47.6	10.1	42.5
COC(=O)[C@@H](N)Cc1nc(Cl)[nH]c1Cl	20.6	10.5	24.9	31.2	27.1
COC(=O)[C@H](Cc1nc(Br)[nH]c1Br)NC(=O)CCN	18.9	4.1	0.0081	30.7	1.84
COC(=O)[C@@H](N)Cc1nc(Br)[nH]c1Br	22.1	1.08	9.7	1.4	0.83

SMILES	KA [1] [µM]	KA [2] [µM]	KA [3] [µM]	KA [4] [µM]	KA [5] [µM]
COC(=O)[C@H](Cc1nc[nH]c1Cl)NC(=O)CCN	15.3	30.9	0.013	1.25	21.5
CC(C)(C)OC(=O)NCCc1nc(Cl)[nH]c1Cl	28.1	24.8	13.1	16.5	40.2
COC(=O)[C@H](Cc1nc[nH]c1Br)NC(=O)CCNC(=O)OC(C)(C)C	36.5	0.97	5.2	2.6	24.9
COC(=O)[C@H](Cc1c[nH]cn1)NC(=O)CCN	0.71	32	0.84	10.9	0.96
NCCc1nc(Cl)[nH]c1Cl	38.9	0.032	0.041	0.018	5.7
CC(C)(C)OC(=O)NCCc1nc(I)[nH]c1I	37.1	36.7	45.6	12.1	35
COC(=O)[C@@H](N)Cc1nc[nH]c1I	7.8	0.32	6.2	0.0012	14.3
COC(=O)[C@H](Cc1nc[nH]c1I)NC(=O)OC(C)(C)C	13.5	0.012	38.5	0.0009	6.1
COC(=O)[C@H](Cc1nc[nH]c1I)NC(=O)CCNC(=O)OC(C)(C)C	24.6	5.2	0.81	4.3	28.7
CC(C)(C)OC(=O)NCCc1nc[nH]c1Cl	45.2	50.2	24.9	5.4	18.8
COC(=O)[C@H](Cc1nc[nH]c1Br)NC(=O)CCN	28.4	1.78	1.02	2.1	30.7
COC(=O)[C@H](Cc1nc(I)[nH]c1I)NC(=O)CCNC(=O)OC(C)(C)C	52.7	8.2	0.74	18.7	40.5
CC(C)(C)OC(=O)NCCc1nc(Br)[nH]c1Br	29.5	28.5	28.3	13.3	37.4
NCCc1nc[nH]c1Br	16.2	0.096	5.2	0.015	3.2
NCCc1nc[nH]c1I	7.1	0.065	7.6	0.0009	0.9
COC(=O)[C@H](Cc1nc(Cl)[nH]c1Cl)NC(=O)OC(C)(C)C	1.4	40.3	50.7	2.45	25.3
COC(=O)[C@@H](N)Cc1nc[nH]c1Cl	6.4	13.1	36.1	21.3	0.078
COC(=O)[C@@H](N)Cc1nc(I)[nH]c1I	24.3	1.12	3.6	0.96	10.9
NCCc1nc(I)[nH]c1I	15.5	0.001	1.39	0.0007	34.6
